This note sets out measurements from PubChem BioAssay AID977623 (Broad Institute, 2014).

Test [1] is described as follows: wild-type E. coli growth inhibition versus H69 humanized strain – H69 mutant GFP, wild-type RFP, cherry-pick, dose response (AID 977623). The settings on record: E. coli WT-RFP/H69-GFP mixed culture, fluorescence, 24 h.
In test [2] the test system is E. coli WT-RFP/H69-GFP mixed culture, fluorescence, 24 h. The test is described as above.
The mark [3] stands for this setting: E. coli WT-RFP/H69-GFP mixed culture, 24 h, measured here: total growth OD600.
Setting [4] is: measured here: H69 humanized strain GFP growth.

Molecules are shown by their SMILES. Records with an inconclusive call do not appear. Active and inactive are the calls of the source.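 The calls were made as follows: active = red signal of normal-ribosome cells cut twice as much as green signal of humanized-ribosome cells, growth loss under 30%; inactive = the rest, inconclusive results apart.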

As a reminder, the AC50 is the concentration giving half of the maximal activity seen. In the case of `CCOC(=O)c1c(NC(=O)Cc2cccs2)sc(C)c1C`, the activity change, negative = inhibition in test [1] (at 50 µM (top of the series)) is 24.9 (inactive). The results for the half-maximal activity concentration (AC50) in test [2] (setting [3]) and in test [2] (setting [4]) were 9.61 µM and 47.4 µM, respectively.

On to `COc1ccc(NC(=O)c2ccc(-c3ccc([N+](=O)[O-])cc3)o2)cc1`, for which the AC50 in test [2] is > 100 µM (inactive); in test [2] (setting [3]) it was 5.6 µM; in test [2] (setting [4]) it was over 100 µM.

For the compound `Cc1ccc(C)c(NC(=O)CSc2nc3nc(-c4cccs4)cc(C(F)(F)F)c3c(=O)[nH]2)c1`, the activity change, negative = inhibition in test [1] (at 50 µM (top of the series)) is 16.1 (inactive). The AC50 in test [2] (setting [3]) came out at 10.3 µM; in test [2] (setting [4]) it was 12.8 µM.

Consider `C[C@@H]1CCCCO[C@H](CN(C)C(=O)CCCN(C)C)[C@H](C)CN([C@@H](C)CO)C(=O)c2cc(NC(=O)Nc3cccc4ccccc34)ccc2O1`, for which, in test [1] (at 50 µM (top of the series)), the activity change, negative = inhibition is 102 (inactive). This compound registered an AC50 in test [2] (setting [4]) of over 100 µM.

In the case of `COc1cc2c(cc1[N+](=O)[O-])-c1ccc([N+](=O)[O-])cc1C2`, in test [1] (at 26 µM (top of the series)), the activity change, negative = inhibition was 77.3 (inactive). The results for the AC50 in test [2] (setting [3]) and in test [2] (setting [4]) were 2.76 µM and over 100 µM, respectively.

As to `O=C(O)c1cc([N+](=O)[O-])ccc1NCc1ccccc1`, the activity change, negative = inhibition in test [1] (at 50 µM (top of the series)) was 3.75 (inactive). For the same compound, the AC50 in test [2] (setting [3]) was determined as 15.2 µM.

Regarding `COc1ccc(Cn2c(-c3ccc(Cl)cc3)c[n+]3ccccc23)cc1`, in test [1] (at 50 µM (top of the series)), the activity change, negative = inhibition is 26.5 (inactive). This compound also showed an AC50 in test [2] (setting [3]) of 47.2 µM.

Regarding `COc1ccc2[nH]c3c(=O)n(CCCCC(=O)NCCC(C)C)c(=S)[nH]c3c2c1`, the activity change, negative = inhibition in test [1] (at 50 µM (top of the series)) was 100 (inactive).

For `Cc1noc(C)c1NC(=O)Nc1ccc2c(c1)C(=O)N([C@H](C)CO)C[C@@H](C)[C@@H](CN(C)C(=O)Nc1ccc3c(c1)OCO3)OCCCC[C@@H](C)O2`, in test [1] (at 50 µM (top of the series)), the activity change, negative = inhibition was 153 (inactive). This compound also registered an AC50 in test [2] (setting [3]) of over 100 µM.
